# Measurements published in patent publication US6683073B1, “Pyrimidine linked pyrrolo[2,1-c][1,4]benzodiazepines as potential antitumour agents” (Council of Scientific and Industrial Research, priority 2003, dated 2004).
# Columns and labels:
# [1] = system: non-small-cell lung cancer cell lines; experiment: NCI in vitro cytotoxicity screen (SRB), non-small-cell lung panel; format: cell-based, human; settings: average of six to eight different cancer cell lines
# Procedure: (§1) Biological Activity: In vitro biological activity studies were carried out at National Cancer Institute (USA).
# (§2) Cytotoxicity: Compounds VIa and VIb were evaluated in vitro against sixty human tumour cells derived from nine cancer types (leukemia, non-small-cell lung, colon, CNS, melanoma, ovarian, prostate, and breast cancer). For each compound, dose response curves for each cell line were measured at a minimum of five concentrations at 10 fold dilutions. A protocol of 48 h continuous drug exposure was used and a sulforhodamine B (SRB) protein assay was used to estimate cell viability or growth. The concentration causing 50% cell growth inhibition (GI50), total cell growth inhibition (TGI 0% growth) and 50% cell death (LC50, −50% growth) compared with the control was calculated.
# (§3) Each cancer type represents the average of six to eight different cancer cell lines.
# CNS cancer cell lines = experiment: NCI in vitro cytotoxicity screen (SRB), CNS panel; format: cell-based, human; settings: average of six to eight different cancer cell lines
# Procedure: as §1, §2, §3
# Colon cancer cell lines = experiment: NCI in vitro cytotoxicity screen (SRB), colon panel; format: cell-based, human; settings: average of six to eight different cancer cell lines
# Procedure: as §1, §2, §3
# Renal cancer cell lines = experiment: NCI in vitro cytotoxicity screen (SRB), renal panel; format: cell-based, human; settings: average of six to eight different cancer cell lines
# Procedure: as §1, §2, §3
# [2] = system: Prostate cancer cell lines; experiment: NCI in vitro cytotoxicity screen (SRB), prostate panel; format: cell-based, human; settings: average of six to eight different cancer cell lines
# Procedure: as §1, §2, §3
# [3] = system: sixty human tumour cells derived from nine cancer types; experiment: NCI in vitro cytotoxicity screen, 48 h drug exposure, sulforhodamine B (SRB) protein assay; format: cell-based; settings: for Log10 GI50 mean graph midpoint (MG_MID): concentration causing 50% cell growth inhibition; for Log10 GI50 mean graph midpoint (MG_MID) / Log10 TGI mean graph midpoint (MG_MID): mean over human tumour cell lines, 48 h exposure; for Log10 TGI mean graph midpoint (MG_MID): total cell growth inhibition (0% growth)
# Procedure: as §1, §2
# Breast cancer cell lines = experiment: NCI in vitro cytotoxicity screen (SRB), breast panel; format: cell-based, human; settings: average of six to eight different cancer cell lines
# Procedure: as §1, §2, §3
# Melanoma cell lines = experiment: NCI in vitro cytotoxicity screen (SRB), melanoma panel; format: cell-based, human; settings: average of six to eight different cancer cell lines
# Procedure: as §1, §2, §3
# Leukaemia cell lines = experiment: NCI in vitro cytotoxicity screen (SRB), leukaemia panel; format: cell-based, human; settings: average of six to eight different cancer cell lines
# Procedure: as §1, §2, §3
# [4] = system: Ovarian cancer cell lines; experiment: NCI in vitro cytotoxicity screen (SRB), ovarian panel; format: cell-based, human; settings: average of six to eight different cancer cell lines
# Procedure: as §1, §2, §3
SMILES,"in vitro cytotoxicity, log10 value (quantity not given) [1]","in vitro cytotoxicity, log10 value (quantity not given) (CNS cancer cell lines)","in vitro cytotoxicity, log10 value (quantity not given) (Colon cancer cell lines)","in vitro cytotoxicity, log10 value (quantity not given) (Renal cancer cell lines)","in vitro cytotoxicity, log10 value (quantity not given) [2]",Log10 GI50 mean graph midpoint (MG_MID) [3],Log10 TGI mean graph midpoint (MG_MID) [3],"in vitro cytotoxicity, log10 value (quantity not given) (Breast cancer cell lines)","in vitro cytotoxicity, log10 value (quantity not given) (Melanoma cell lines)","in vitro cytotoxicity, log10 value (quantity not given) (Leukaemia cell lines)","in vitro cytotoxicity, log10 value (quantity not given) [4]","cytotoxic / anticancer activity, in words ([3]; human tumour cell lines)"
"COc1cc2c(cc1OCCCOc1cc(-c3ccc(F)cc3)nc(C)n1)N=C[C@@H]1CCCN1C2=O [VIa, 7-methoxy-8-[6′-(4″-fluorophenyl)-2′-methylpyrimidine-4′-yloxy]propoxy-(11aS)-1,2,3,11a-tetrahydro-5H-pyrrolo[2,1,c][1,4]benzodiazepin-5-one]",−4.07,−4.10,−4.12,−4.18,−4.00,−4.73,−4.34,−4.09,−4.14,−4.03,−4.05,–
"COc1cc2c(cc1OCCCCOc1cc(-c3ccc(F)cc3)nc(C)n1)N=C[C@@H]1CCCN1C2=O [VIb, 7-methoxy-8-[6′-(4″-fluorophenyl)-2′-methylpyrimidine-4′-yloxy]butoxy-(11aS)-1,2,3,11a-tetrahydro-5H-pyrrolo[2,1,c][1,4]benzodiazepin-5-one]",−4.61,−4.40,−4.67,−4.39,−4.45,−6.41,−5.57,−4.52,−5.22,−5.41,−4.33,slightly higher activity
